Tested on: severe traumatic brain injury (sTBI)
Test: sTBI in rats, brain gene expression arrays and pathway analysis (Example 9)
Type: in vivo, Male Wistar rats
Parameters: key to z score, canonical pathway Dendritic Cell Maturation / z score, canonical pathway Adrenomedullin Signaling pathway / z score, canonical pathway Endothelin-1 Signaling / effect on canonical pathway Adrenomedullin Signaling pathway / effect on canonical pathway Endothelin-1 Signaling / effect on canonical pathway Dendritic Cell Maturation / Ingenuity canonical pathway Adrenomedullin signaling pathway, z score / Ingenuity canonical pathway FLT3 Signaling in Hematopoietic Progenitor Cells, z score / Ingenuity canonical pathway Opioid Signaling Pathway, z score / Ingenuity canonical pathway VDR/RXR Activation, z score / Ingenuity canonical pathway Neuropathic Pain Signaling In Dorsal Horn Neurons, z score / Ingenuity canonical pathway STAT3 Pathway, z score / Ingenuity canonical pathway IL-1 Signaling, z score / Ingenuity canonical pathway IL-6 Signaling, z score / Ingenuity canonical pathway NF-κB Signaling, z score / Ingenuity canonical pathway Role of NFAT in Cardiac Hypertrophy, z score / Ingenuity canonical pathway PPARα/RXRα Activation, z score: *: ambiguous effect
Procedure: The experimental protocol used in this study was approved by the Ethical Committee of the Catholic University of Rome, according to international standards and guidelines for animal care. Male Wistar rats of 300-350 g body weight were fed with standard laboratory diet and water ad libitum in a controlled environment. As the anesthetic mixture, the animals received 35 mg/kg b.w. ketamine and 0.25 mg/kg body weight midazolam by i.p. injection. Severe traumatic brain injury (sTBI) was induced by dropping a 450 g weight from 2 m height on to the rat head that had been protected by a metal disk previously fixed on the skull, according to the “weight drop” impact acceleration model (Marmarou et al., A new model of diffuse brain injury in rats. Part I: Pathophysiology and biomechanics. J Neurosurg. 1994; 80: 291-300). […] At the end of each period of treatment, rats were anesthetized again and then immediately sacrificed.
LMW-DS (Tikomed AB) was provided at a stock concentration of 20 mg/ml and was kept in a temperature-monitored refrigerator at 4° C. LMW-DS aliquots were diluted to the appropriate dosing concentration in sterile saline prior to delivery of a single subcutaneous injection.
Three doses of LMW-DS were administered subcutaneously 30 minutes post-TBI. The animals were sacrificed at 2 days post-TBI. The animals were divided into the following subgroups:
Three doses of LMW-DS were administered subcutaneously 30 minutes post-TBI. The animals were sacrificed at 7 days post-TBI. The animals were divided into the following subgroups:
An in vivo craniectomy was performed on all animals during anesthesia. After carefully removing the rat's skull, the brain was exposed and removed with a surgical spatula and quickly dropped in RNALater and preserved at 4° C. for further processing.
RNA extraction and array processing was carried out by SourceBioscience. The arrays used were the Agilent Rat expression arrays.
Statistical analysis was carried out using the Metaboanalyst software package. Gene expression changes of 10% with a p<0.05 were regarded as significant.
Pathway analysis of the differentially regulated genes was carried out using the Ingenuity pathway analysis package. The analysis was performed with special reference to pathways and molecular processes and diseases associated with neurodegenerative disease, including dementia, Alzheimer's disease, ALS, TBI and stroke, and with scarring and fibrosis, including glaucoma and normal pressure hydrocephalus (NPH) after subarachnoid haemorrhage.

[1] = 3 repeated doses of 15 mg/kg, 7 days
[2] = 2 days after TBI, TBI + 1 mg/kg LMW-DS
[3] = 2 days after TBI, TBI + 1 mg/kg LMW-DS, relative to control

Substance: low molecular weight dextran sulfate [LMW-DS]
- genes with altered TBI-specific expression (1 mg/kg s.c. 30 min after injury, 2 days): 372 genes
- genes with altered TBI-specific expression (1 mg/kg s.c. 30 min after injury, 7 days): 3602 genes
- TBI-deregulated genes remaining deregulated relative to healthy controls (of 221) (1 mg/kg, 2 days): 22 genes
- TBI-deregulated genes remaining deregulated, percent (1 mg/kg, 2 days): 10%
- genes differing from healthy controls (1 mg/kg, 2 days): 209 genes
- TBI-deregulated genes remaining deregulated relative to healthy controls (of 2741) (1 mg/kg, 7 days): 124 genes
- TBI-deregulated genes remaining deregulated, percent (1 mg/kg, 7 days): 4.5%
- genes differing from healthy controls (1 mg/kg, 7 days): 282 genes
- genes with altered TBI-specific expression (5 mg/kg s.c. 30 min after TBI, 2 days): 702 genes
- genes with altered TBI-specific expression (5 mg/kg s.c. 30 min after TBI, 7 days): 3852 genes
- TBI-deregulated genes remaining deregulated relative to healthy controls (of 221) (5 mg/kg, 2 days): 51 genes
- TBI-deregulated genes remaining deregulated, percent (5 mg/kg, 2 days): 23%
- genes differing from healthy controls (5 mg/kg, 2 days): 258 genes
- TBI-deregulated genes remaining deregulated relative to healthy controls (of 2741) (5 mg/kg, 7 days): 169 genes
- TBI-deregulated genes remaining deregulated, percent (5 mg/kg, 7 days): 6.1%
- genes differing from healthy controls (5 mg/kg, 7 days): 398 genes
- genes with altered TBI-specific expression (15 mg/kg s.c. 30 min after TBI, 2 days): 247 genes
- genes with altered TBI-specific expression (15 mg/kg s.c. 30 min after TBI, 7 days): 3901 genes
- TBI-deregulated genes remaining deregulated relative to healthy controls (of 221) (15 mg/kg, 2 days): 19 genes
- TBI-deregulated genes remaining deregulated, percent (15 mg/kg, 2 days): 8.5%
- genes differing from healthy controls (15 mg/kg, 2 days): 47 genes
- TBI-deregulated genes remaining deregulated relative to healthy controls (of 2741) (15 mg/kg, 7 days): 85 genes
- TBI-deregulated genes remaining deregulated, percent (15 mg/kg, 7 days): 3.1%
- genes differing from healthy controls (15 mg/kg, 7 days): 158 genes
- TBI-deregulated genes remaining deregulated relative to healthy controls (of 2741) [1]: 116 genes
- TBI-deregulated genes remaining deregulated, percent [1]: 4.25%
- genes differing from healthy controls [1]: 234 genes
- effect on canonical pathway Adrenomedullin Signaling pathway [2]: *
- effect on canonical pathway Dendritic Cell Maturation [2]: *
- effect on canonical pathway Endothelin-1 Signaling [2]: *
- effect on canonical pathway IL-1 Signaling [2]: Inhibited
- effect on canonical pathway Osteoarthritis Pathway [2]: Inhibited
- effect on canonical pathway Role of NFAT in Regulation of the Immune Response [2]: Activated
- z score, Abdominal cancer [2]: −1.538
- z score, Abdominal carcinoma [2]: −1.715
- z score, Abdominal neoplasm [2]: −0.154
- z score, Activation of blood cells [2]: 0.086
- z score, Activation of cells [2]: 0.836
- z score, Activation of leukocytes [2]: 0.086
- z score, Activation of lymphocytes [2]: −1.158
- z score, Adhesion of tumor cell lines [2]: 2.074
- z score, Apoptosis [2]: −0.337
- z score, Apoptosis of muscle cells [2]: 0.041
- z score, Behavior [2]: 1.334
- z score, Binding of tumor cell lines [2]: 2.397
- z score, Carcinoma [2]: −0.127
- z score, Cell death [2]: −0.793
- z score, Cell death of blood cells [2]: 1.082
- z score, Cell death of immune cells [2]: 1.001
- z score, Cell movement [2]: 1.948
- z score, Cell movement of muscle cells [2]: −0.26
- z score, Cell movement of vascular smooth muscle cells [2]: −0.588
- z score, Cell proliferation of T lymphocytes [2]: −1.097
- z score, Cellular homeostasis [2]: 0.19
- z score, Concentration of prostaglandin [2]: −0.911
- z score, Development of connective tissue cells [2]: −0.332
- z score, Differentiation of bone cells [2]: −0.341
- z score, Differentiation of connective tissue cells [2]: 0.73
- z score, Differentiation of hematopoietic progenitor cells [2]: 0.487
- z score, Differentiation of osteoclasts [2]: −0.223
- z score, Digestive organ tumor [2]: −0.604
- z score, Experimentally-induced arthritis [2]: −0.816
- z score, Extracranial solid tumor [2]: 0.056
- z score, Genital tumor [2]: 0.13
- z score, Incidence of tumor [2]: −1.131
- z score, Inflammation of absolute anatomical region [2]: −1.359
- z score, Inflammation of body cavity [2]: −1.757
- z score, Inflammation of joint [2]: −0.053
- z score, Inflammation of organ [2]: −1.295
- z score, Inflammatory response [2]: 1.159
- z score, Interaction of mononuclear leukocytes [2]: 1.626
- z score, Leukocyte migration [2]: 1.296
- z score, Leukopoiesis [2]: 1.185
- z score, Locomotion [2]: −0.039
- z score, Lymphopoiesis [2]: 0.583
- z score, Malignant solid tumor [2]: −0.562
- z score, Migration of cells [2]: 2.093
- z score, Necrosis [2]: −0.361
- z score, Non-hematologic malignant neoplasm [2]: −0.243
- z score, Pelvic tumor [2]: −0.651
- z score, Proliferation of blood cells [2]: −1.083
- z score, Proliferation of lymphatic system cells [2]: −1.112
- z score, Proliferation of lymphocytes [2]: −0.852
- z score, Quantity of blood cells [2]: −1.479
- z score, Quantity of bone [2]: −1.985
- z score, Quantity of cells [2]: −0.765
- z score, Quantity of connective tissue cells [2]: 0.637
- z score, Quantity of leukocytes [2]: −1.163
- z score, Quantity of lymphatic system cells [2]: −0.701
- z score, Quantity of phagocytes [2]: −2.061
- z score, Rheumatic Disease [2]: −0.053
- z score, Size of body [2]: −4.771
- z score, Solid tumor [2]: −0.186
- z score, Survival of organism [2]: −0.095
- z score, Synthesis of hormone [2]: 0.977
- z score, Thrombus [2]: 1
- z score, Transcription of RNA [2]: −2.488
- z score, Transport of molecule [2]: 2.421
- z score, canonical pathway Adrenomedullin Signaling pathway [3]: *
- z score, canonical pathway Dendritic Cell Maturation [3]: *
- z score, canonical pathway Endothelin-1 Signaling [3]: *
- z score, canonical pathway IL-1 Signaling [3]: −1
- z score, canonical pathway Osteoarthritis Pathway [3]: −1.342
- z score, canonical pathway Role of NFAT in Regulation of the Immune Response [3]: 0.378

Source: patent publication US11534457B2, “Use of dextran sulfate” (priority 2017, dated 2022)
